Results from publication PMC5855801, “Benzothiophenone Derivatives Targeting Mutant Forms of Estrogen Receptor-α in Hormone-Resistant Breast Cancers” (International Journal of Molecular Sciences, 2018).

Assays:
MCF7 cells = assay: Presto Blue cell viability assay, MCF7; type: cell-based, human; details: MCF7, 96 h, two-fold dilution starting at 50 µM
Procedure: (§1) The Presto Blue cell viability assay was used to assess the growth inhibitory potential of VPC-16606 on ERα^+ T47D, MCF7, ZR75-1 and TamR3 cells. They were treated for 96 h with a two-fold dilution range of the compound starting at 50 µM.
(§2) Cell viability was determined using the Presto Blue cell viability assay (Thermo Fisher Scientific, Waltham, MA, USA). Cells were seeded in clear bottom black-walled 96-well plates at a density of 5 × 10^3 cells/well in 100 μL of their respective media. On the following day, the cells were treated with test compounds (0.001–22.5 μM) in the presence of 1 nM E2 and incubated at 37 °C. After 96 h, 30 μL of Presto Blue reagent was added and incubated for 10 min at 37 °C. The fluorescent signal from viable cells was measured at 590 nm.

[1] = tested on: TamR3 cells (tamoxifen-resistant MCF7-derived); assay: Presto Blue cell viability assay, TamR3; type: cell-based, human; details: TamR3, 96 h, two-fold dilution starting at 50 µM
Procedure: as §1, §2

androgen receptor (AR) = molecular target: T1, androgen receptor (AR) (Homo sapiens, UniProt P10275); assay: Luciferase reporter selectivity assay in PC3 cells, AR; type: cell-based; details: 24 h
T1 construct: expressed in transfected cells; host or cells: PC3
T1 sequence (P10275 1-920): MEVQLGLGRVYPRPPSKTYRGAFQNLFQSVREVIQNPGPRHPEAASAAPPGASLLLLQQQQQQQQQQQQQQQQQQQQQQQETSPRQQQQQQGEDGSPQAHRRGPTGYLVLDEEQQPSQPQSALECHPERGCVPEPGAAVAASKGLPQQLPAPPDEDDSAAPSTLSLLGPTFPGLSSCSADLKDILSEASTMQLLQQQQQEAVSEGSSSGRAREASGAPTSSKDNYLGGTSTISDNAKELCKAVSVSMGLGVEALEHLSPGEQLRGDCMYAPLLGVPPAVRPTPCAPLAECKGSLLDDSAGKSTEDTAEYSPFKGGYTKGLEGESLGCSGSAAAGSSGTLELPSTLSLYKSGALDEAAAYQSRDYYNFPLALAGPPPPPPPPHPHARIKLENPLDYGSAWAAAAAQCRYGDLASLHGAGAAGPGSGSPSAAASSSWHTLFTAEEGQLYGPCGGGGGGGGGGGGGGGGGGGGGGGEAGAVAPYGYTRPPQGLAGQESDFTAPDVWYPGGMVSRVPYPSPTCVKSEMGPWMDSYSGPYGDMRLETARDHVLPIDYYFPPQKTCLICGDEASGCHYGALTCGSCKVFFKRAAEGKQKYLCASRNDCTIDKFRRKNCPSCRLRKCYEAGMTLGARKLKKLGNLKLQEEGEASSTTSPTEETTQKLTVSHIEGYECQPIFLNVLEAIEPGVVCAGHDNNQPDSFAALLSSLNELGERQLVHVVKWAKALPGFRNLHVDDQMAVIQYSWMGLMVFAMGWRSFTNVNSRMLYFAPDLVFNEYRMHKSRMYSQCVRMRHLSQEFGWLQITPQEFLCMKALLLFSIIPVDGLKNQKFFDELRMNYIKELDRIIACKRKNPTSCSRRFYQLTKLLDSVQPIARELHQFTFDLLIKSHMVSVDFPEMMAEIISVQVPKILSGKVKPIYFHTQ
Procedure: Figure 4 Further activity profile of VPC-16606. (A,B) Chromatin immunoprecipitation (ChIP) analysis of ERα binding to the pS2 enhancer, or the GAPDH promoter, in MCF7 cells. Where indicated, ERα was stimulated with 1 nM E2 or dimethyl sulfoxide (DMSO) alone, and the compound was administered at a 6 μM concentration. Sheared chromatin-protein complexes were precipitated with the ERα antibody, reverse cross-linked and analyzed by quantitative PCR. The results are normalized as fold enrichment over precipitation with a rabbit isotype control IgG antibody for each condition tested. Error bars indicate standard error of the mean (SEM) for 3 independent experiments performed in triplicates. Fold enrichment from the compound tested condition (ERα antibody) was statistically compared against DMSO + E2 with a two-tailed t-test (unpaired) *** indicates p-value <0.001. (C) Specificity of VPC-16606 was evaluated in the luciferase reporter assay. PC3 cells were transfected with plasmids expressing androgen receptor (AR), progesterone receptor (PR) or glucocorticoid receptor (GR) along with their responsive luciferase reporter constructs bearing androgen response element (ARE), progesterone response element (PRE) or glucocorticoid response element (GRE), respectively. […] Y-axis represents relative luminescence (RLU) after normalizing to constitutive renilla reporter. […]

ZR75-1 cells = assay: Presto Blue cell viability assay, ZR75-1; type: cell-based, human; details: ZR75-1, 96 h, two-fold dilution starting at 50 µM
Procedure: as §1, §2

Question: Which results are given for CC(=O)N(/N=C1\Sc2c(C)cccc2C1=O)c1ccccc1Cl [VPC-16606]?
Answer: Cell growth (Presto Blue viability) (MCF7 cells): significantly reduce the growth; Cell growth (Presto Blue viability) [1]: significantly reduce the growth; Effect on AR activity (luciferase) (androgen receptor (AR); 50 µM): some effect; Effect on AR activity (luciferase) (androgen receptor (AR); doses up to 25 µM): does not affect the activity; Cell growth (Presto Blue viability) (ZR75-1 cells): significantly reduce the growth
